Test results published in ChEMBL document CHEMBL1201862, “PubChem BioAssay data set” (2004).
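Exposure lasted 48 hours, with cells grown in 96-well plates and compounds tested at five concentrations. GI50 marks 50% less growth.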 The source made the active and inactive calls. Rule as the data show it: active = GI50 up to about 1.1 µM and inactive = higher.

Experiments:
Experiment in all cases: growth of human tumour cells (NCI), 48 h
SW-620 = test system: SW-620
PC-3 = test system: PC-3
HCT-116 = test system: HCT-116
Hs-578T = test system: Hs-578T
TK-10 = test system: TK-10
COLO 205 = test system: COLO 205
MOLT-4 = test system: MOLT-4
OVCAR-4 = test system: OVCAR-4
SK-MEL-5 = test system: SK-MEL-5
Malme-3M = test system: Malme-3M
HT-29 = test system: HT-29
SK-MEL-28 = test system: SK-MEL-28
UACC-257 = test system: UACC-257
IGROV-1 = test system: IGROV-1
T47D = test system: T47D
SR = test system: SR
RXF 393 = test system: RXF 393
MDA-MB-435 = test system: MDA-MB-435
KM12 = test system: KM12
HOP-92 = test system: HOP-92

Row | SMILES | GI50 (SW-620) | GI50 (PC-3) | GI50 (HCT-116) | GI50 (Hs-578T) | GI50 (TK-10) | GI50 (COLO 205) | GI50 (MOLT-4) | GI50 (OVCAR-4) | GI50 (SK-MEL-5) | GI50 (Malme-3M) | GI50 (HT-29) | GI50 (SK-MEL-28) | GI50 (UACC-257) | GI50 (IGROV-1) | GI50 (T47D) | GI50 (SR) | GI50 (RXF 393) | GI50 (MDA-MB-435) | GI50 (KM12) | GI50 (HOP-92)
1 | COC1CCON1C(=O)c1ccccc1 (stereo unspecified) | > 10 µM (inactive) | > 10 µM (inactive) | > 10 µM (inactive) | > 10 µM (inactive) | > 10 µM (inactive) | > 10 µM (inactive) | > 10 µM (inactive) | > 10 µM (inactive) | > 10 µM (inactive) | > 10 µM (inactive) | > 10 µM (inactive) | > 10 µM (inactive) | > 10 µM (inactive) | > 10 µM (inactive) | > 10 µM (inactive) | > 10 µM (inactive) | > 10 µM (inactive) | > 10 µM (inactive) | – | –
2 | CC(=O)NC1=C(Sc2ccc(Cl)cc2)C(=O)c2ccccc2C1=O | 1.95 µM (inactive) | 2.77 µM (inactive) | – | 10.4 µM (inactive) | 4.42 µM (inactive) | 2 µM (inactive) | 0.374 µM (active) | 1.63 µM (inactive) | 1.85 µM (inactive) | 2.97 µM (inactive) | 12.2 µM (inactive) | 2.7 µM (inactive) | 5.33 µM (inactive) | 4.84 µM (inactive) | 2.06 µM (inactive) | 2.21 µM (inactive) | 1.86 µM (inactive) | 2.08 µM (inactive) | 4.75 µM (inactive) | 1.82 µM (inactive)
3 | O=C(O)c1c(-c2c3ccc(=O)cc-3oc3cc(O)ccc23)cc2ccccc2c1-c1ccccc1 | > 100 µM (inactive) | > 100 µM (inactive) | > 100 µM (inactive) | > 100 µM (inactive) | > 36.6 µM (inactive) | > 100 µM (inactive) | 4.85 µM (inactive) | > 100 µM (inactive) | > 100 µM (inactive) | > 100 µM (inactive) | > 100 µM (inactive) | > 100 µM (inactive) | > 100 µM (inactive) | > 100 µM (inactive) | > 93.1 µM (inactive) | > 100 µM (inactive) | > 100 µM (inactive) | > 100 µM (inactive) | > 100 µM (inactive) | > 100 µM (inactive)
4 | O=S(=O)(CC(Cl)c1ccccc1)c1nc2ccccc2s1 (stereo unspecified) | 5.2 µM (inactive) | 16 µM (inactive) | 9.86 µM (inactive) | 27.6 µM (inactive) | 19.5 µM (inactive) | 7.93 µM (inactive) | 2.81 µM (inactive) | 19.8 µM (inactive) | 4.01 µM (inactive) | 9.16 µM (inactive) | 5.42 µM (inactive) | 15.7 µM (inactive) | 7.8 µM (inactive) | 9.12 µM (inactive) | 13.2 µM (inactive) | 1.67 µM (inactive) | 15 µM (inactive) | 7.71 µM (inactive) | 17.2 µM (inactive) | 2.88 µM (inactive)
5 | CC(C)(O)[C@@H]1CC[C@](C)(C2[C@@H](O)C[C@@]3(C)C4C[C@H](OC5OCC(O)C(O)C5O)[C@H]5C(C)(C)[C@@H](OC6OCC(O)C(O)C6OC6OCC(O)C(O)C6O)CC[C@@]56C[C@@]46CC[C@]23C)O1 (stereo partly specified) | > 100 µM (inactive) | > 100 µM (inactive) | > 100 µM (inactive) | > 100 µM (inactive) | – | > 100 µM (inactive) | > 100 µM (inactive) | > 100 µM (inactive) | > 100 µM (inactive) | – | > 100 µM (inactive) | > 100 µM (inactive) | – | > 100 µM (inactive) | > 100 µM (inactive) | > 100 µM (inactive) | > 100 µM (inactive) | > 100 µM (inactive) | > 100 µM (inactive) | –
6 | O=C1C=CC(=O)c2c(O)c(N3CCN(c4ccccn4)CC3)cc(O)c21 | 3.58 µM (inactive) | 16.2 µM (inactive) | 2.85 µM (inactive) | 16.1 µM (inactive) | 34.7 µM (inactive) | 5.35 µM (inactive) | 4.22 µM (inactive) | 11.6 µM (inactive) | 1.77 µM (inactive) | 0.553 µM (active) | 4.3 µM (inactive) | 13.7 µM (inactive) | 4.07 µM (inactive) | 10.1 µM (inactive) | 29.4 µM (inactive) | 3.19 µM (inactive) | 7.26 µM (inactive) | 0.851 µM (active) | 11 µM (inactive) | 10.2 µM (inactive)
7 | CCO/C=C(\C(=O)OC)S(=O)(=O)c1ccc(C)cc1 | > 100 µM (inactive) | > 100 µM (inactive) | > 100 µM (inactive) | > 100 µM (inactive) | > 100 µM (inactive) | > 100 µM (inactive) | > 100 µM (inactive) | > 100 µM (inactive) | > 100 µM (inactive) | > 100 µM (inactive) | > 100 µM (inactive) | > 100 µM (inactive) | > 100 µM (inactive) | > 100 µM (inactive) | > 100 µM (inactive) | > 100 µM (inactive) | > 100 µM (inactive) | > 100 µM (inactive) | > 100 µM (inactive) | > 100 µM (inactive)
8 | C=CCC1(OC(C)=O)C2OC(=O)C1(O)OCC2O (stereo unspecified) | > 100 µM (inactive) | > 100 µM (inactive) | > 100 µM (inactive) | > 100 µM (inactive) | > 70.8 µM (inactive) | > 100 µM (inactive) | > 100 µM (inactive) | > 100 µM (inactive) | > 100 µM (inactive) | > 100 µM (inactive) | > 100 µM (inactive) | > 100 µM (inactive) | > 100 µM (inactive) | > 100 µM (inactive) | > 100 µM (inactive) | > 100 µM (inactive) | > 100 µM (inactive) | > 100 µM (inactive) | > 100 µM (inactive) | –
9 | COC12C=CC(CC1)C1C(=O)c3c(C)c(C)n(C)c3C(=O)C12 (stereo unspecified) | > 100 µM (inactive) | > 100 µM (inactive) | 89.5 µM (inactive) | 70.3 µM (inactive) | > 100 µM (inactive) | > 100 µM (inactive) | > 100 µM (inactive) | – | 19.6 µM (inactive) | > 100 µM (inactive) | > 100 µM (inactive) | – | 35.6 µM (inactive) | 73.5 µM (inactive) | > 100 µM (inactive) | 27 µM (inactive) | > 100 µM (inactive) | 83.2 µM (inactive) | 91.4 µM (inactive) | –
10 | COc1ccc(/N=C2\C(=N/c3ccc(OC)cc3)N(S(=O)(=O)c3ccccc3)C(=S)N2c2ccccc2)cc1 | > 100 µM (inactive) | > 100 µM (inactive) | – | > 100 µM (inactive) | > 100 µM (inactive) | > 100 µM (inactive) | > 100 µM (inactive) | – | > 100 µM (inactive) | > 100 µM (inactive) | > 100 µM (inactive) | > 100 µM (inactive) | > 100 µM (inactive) | > 100 µM (inactive) | > 100 µM (inactive) | > 100 µM (inactive) | > 100 µM (inactive) | > 100 µM (inactive) | > 100 µM (inactive) | > 100 µM (inactive)
11 | CC(SC(=S)N1CCOCC1)C(=O)Nc1nnc(-c2ccccc2)o1 (stereo unspecified) | 51.6 µM (inactive) | 57.1 µM (inactive) | 93.3 µM (inactive) | > 100 µM (inactive) | > 100 µM (inactive) | > 100 µM (inactive) | 36.8 µM (inactive) | > 100 µM (inactive) | 46.7 µM (inactive) | > 100 µM (inactive) | 61.1 µM (inactive) | > 100 µM (inactive) | > 100 µM (inactive) | 99.1 µM (inactive) | 91.6 µM (inactive) | 21.8 µM (inactive) | > 100 µM (inactive) | > 100 µM (inactive) | > 100 µM (inactive) | –
12 | N#Cc1c(-c2ccccc2)cc(-c2ccc(Cl)cc2)[nH]c1=S | 28.4 µM (inactive) | 27.1 µM (inactive) | 33.1 µM (inactive) | 38.8 µM (inactive) | 45.9 µM (inactive) | 25.4 µM (inactive) | 28.1 µM (inactive) | 42.6 µM (inactive) | 17.7 µM (inactive) | 27 µM (inactive) | 37 µM (inactive) | 20.3 µM (inactive) | – | 26.7 µM (inactive) | 18.7 µM (inactive) | 23.8 µM (inactive) | 34 µM (inactive) | 14.3 µM (inactive) | 58.5 µM (inactive) | 65.9 µM (inactive)
13 | CCC/C(=N\NC(=S)N1CC2CCC(CC2)C1)c1ccccn1 | 0.0566 µM (active) | 0.0906 µM (active) | 0.0359 µM (active) | 0.213 µM (active) | 0.977 µM (active) | 0.0205 µM (active) | 0.0179 µM (active) | 0.395 µM (active) | 0.117 µM (active) | – | 0.0432 µM (active) | 0.783 µM (active) | 0.0252 µM (active) | 0.167 µM (active) | 0.00425 µM (active) | 0.0495 µM (active) | 0.51 µM (active) | 0.585 µM (active) | 0.144 µM (active) | 0.019 µM (active)
14 | CC1OC(OC2C[C@](O)(C(=O)CBr)Cc3c(O)c4c(c(O)c32)C(=O)c2ccccc2C4=O)C(F)C(O)C1O (stereo partly specified) | 2.69 µM (inactive) | 13.4 µM (inactive) | 5.83 µM (inactive) | 30 µM (inactive) | 20.3 µM (inactive) | 9.73 µM (inactive) | – | 23.6 µM (inactive) | 8.95 µM (inactive) | 3.66 µM (inactive) | 12.1 µM (inactive) | 23.8 µM (inactive) | 13.3 µM (inactive) | 7.89 µM (inactive) | 5.35 µM (inactive) | 0.426 µM (active) | 18.5 µM (inactive) | 14.1 µM (inactive) | 19.6 µM (inactive) | 4.21 µM (inactive)
15 | CC(=O)Nc1ncc(Sc2ccccc2C(=O)O)s1 | > 100 µM (inactive) | > 100 µM (inactive) | > 100 µM (inactive) | > 100 µM (inactive) | > 100 µM (inactive) | > 100 µM (inactive) | > 100 µM (inactive) | – | > 100 µM (inactive) | – | > 100 µM (inactive) | > 100 µM (inactive) | > 100 µM (inactive) | > 100 µM (inactive) | > 100 µM (inactive) | > 100 µM (inactive) | > 100 µM (inactive) | > 100 µM (inactive) | > 100 µM (inactive) | > 100 µM (inactive)
